Assays:
Type in all cases: in vivo
maize [1] = experiment: Herbicidal activity test, pre-weeds emergence treatment (crop damage); settings: assessed 2 to 3 weeks after spraying, scale 0-10 (0: no effect, 10: complete death)
Procedure: (§1) A rectangular plastic pot with a surface area of 300 cm^2 was filled with sandy loam soil and mixed soil at a ratio of 1:1, and four kinds of weeds including Quamoclit pennata, Abutilon theophrasti Medicus, and Aeschynomene indica, Xanthium strumarium were sown therein. In another pot made in the same way, three kinds of crop seeds including maize, wheat, and rice were sown. The pots were watered and one day later, a medicament was sprayed thereon. The spraying was performed by using a track sprayer (R&D Sprayer, USA) equipped with Teejet 8002EVS (Spraying Systems Co., USA) nozzle, and the spray amount was controlled to be 1000 L/ha. A spray solution was prepared by dissolving the compound of each example or a control material in acetone, and then, adding the same amount of 0.1% (v/v) tween 20 aqueous solution thereto. The spray amount was 200 g/ha. The pots were placed in a greenhouse in which the temperature was maintained at 25° C. to 30° C. during the day and 15° C. to 25° C. during the night, and was regularly watered. After 2 to 3 weeks from the spraying of the compounds or the control material, the efficacy and the damages on each weed and each crop were assessed according to the scale of 0-10 (0: no effect, 10: complete death) scale and the results are shown in Table 3 below.
(§2) Pots for crops and weeds were prepared in the same manner as the test method illustrated in Table 3, and three kinds of weeds selected from Quamoclit pennata, Abutilon theophrasti Medicus, and Aeschynomene indica, Xanthium strumarium were used.

rice [2] = experiment: as above; settings: assessed 2 to 3 weeks after spraying, scale 0-10 (0: no effect, 10: complete death)
Procedure: as §1, §2

wheat [3] = experiment: as above; settings: assessed 2 to 3 weeks after spraying, scale 0-10 (0: no effect, 10: complete death)
Procedure: as §1, §2

[4] = system: Abutilon theophrasti Medicus; experiment: Herbicidal activity test, pre-weeds emergence treatment; settings: assessed 2 to 3 weeks after spraying, scale 0-10 (0: no effect, 10: complete death)
Procedure: as §1, §2

Aeschynomene indica [5] = experiment: as above; settings: assessed 2 to 3 weeks after spraying, scale 0-10 (0: no effect, 10: complete death)
Procedure: as §1, §2

Quamoclit pennata [6] = experiment: as above; settings: assessed 2 to 3 weeks after spraying, scale 0-10 (0: no effect, 10: complete death)
Procedure: as §1, §2

Xanthium strumarium [7] = experiment: as above; settings: assessed 2 to 3 weeks after spraying, scale 0-10 (0: no effect, 10: complete death)
Procedure: as §1, §2

maize [8] = experiment: Herbicidal activity test, post-weeds emergence treatment (crop damage); settings: assessed after 2 to 3 weeks, 0: no effect, 10: complete death
Procedure: as §1
(§3) Pots for crops and weeds were prepared in the same manner as in Experimental Example 1, and then, when the crops and the weeds were raised up to 2 weeks roughly on a third-leaf stage, the compounds and the control material were sprayed thereon in the same manner as described above. The spray amount was 200 g/ha. After 2 to 3 weeks from the spraying of the test substance or the control substance, the efficacy and the damages on each weed and each crop were assessed according to the scale of 0-10 (0: no effect, 10: complete death) scale.
as §2, with “5,” for “3,”, “four” for “three”, “used. The spray amount was 200 g/ha for crops and 50 g/ha for weeds.” for “used.”

rice [9] = experiment: as above; settings: assessed after 2 to 3 weeks, 0: no effect, 10: complete death
Procedure: as §1, §3
as §2, with “5,” for “3,”, “four” for “three”, “used. The spray amount was 200 g/ha for crops and 50 g/ha for weeds.” for “used.”

wheat [10] = experiment: as above; settings: assessed after 2 to 3 weeks, 0: no effect, 10: complete death
Procedure: as §1, §3
as §2, with “5,” for “3,”, “four” for “three”, “used. The spray amount was 200 g/ha for crops and 50 g/ha for weeds.” for “used.”

[11] = system: Abutilon theophrasti Medicus; experiment: Herbicidal activity test, post-weeds emergence treatment; settings: assessed after 2 to 3 weeks, 0: no effect, 10: complete death
Procedure: as §1, §3
as §2, with “5,” for “3,”, “four” for “three”, “used. The spray amount was 200 g/ha for crops and 50 g/ha for weeds.” for “used.”

Aeschynomene indica [12] = experiment: as above; settings: assessed after 2 to 3 weeks, 0: no effect, 10: complete death
Procedure: as §1, §3
as §2, with “5,” for “3,”, “four” for “three”, “used. The spray amount was 200 g/ha for crops and 50 g/ha for weeds.” for “used.”

Quamoclit pennata [13] = experiment: as above; settings: assessed after 2 to 3 weeks, 0: no effect, 10: complete death
Procedure: as §1, §3
as §2, with “5,” for “3,”, “four” for “three”, “used. The spray amount was 200 g/ha for crops and 50 g/ha for weeds.” for “used.”

Xanthium strumarium [14] = experiment: as above; settings: assessed after 2 to 3 weeks, 0: no effect, 10: complete death
Procedure: as §1, §3
as §2, with “5,” for “3,”, “four” for “three”, “used. The spray amount was 200 g/ha for crops and 50 g/ha for weeds.” for “used.”

[15] = spray amount 200 g/ha for crops, Table 6
[16] = spray amount 50 g/ha for weeds, Table 6

| SMILES | PRE ZEAMX (maize), damage score (maize [1]; Table 3, 200 g/ha) | PRE ZEAMX (maize), damage score (maize [1]; Table 4, 200 g/ha) | PRE ORYSA (rice), damage score (rice [2]; Table 3, 200 g/ha) | PRE ORYSA (rice), damage score (rice [2]; Table 4, 200 g/ha) | PRE TRZAW (wheat), damage score (wheat [3]; Table 3, 200 g/ha) | PRE TRZAW (wheat), damage score (wheat [3]; Table 4, 200 g/ha) | PRE ABUTH (Abutilon theophrasti Medicus), efficacy score ([4]; Table 3, 200 g/ha) | PRE ABUTH (Abutilon theophrasti Medicus), efficacy score ([4]; Table 4, 200 g/ha) | PRE AESIN (Aeschynomene indica), efficacy score (Aeschynomene indica [5]; Table 3, 200 g/ha) | PRE AESIN (Aeschynomene indica), efficacy score (Aeschynomene indica [5]; Table 4, 200 g/ha) | PRE IPOAN (Quamoclit pennata), efficacy score (Quamoclit pennata [6]; Table 3, 200 g/ha) | PRE IPOAN (Quamoclit pennata), efficacy score (Quamoclit pennata [6]; Table 4, 200 g/ha) | PRE XANST (Xanthium strumarium), efficacy score (Xanthium strumarium [7]; Table 3, 200 g/ha) | PRE XANST (Xanthium strumarium), efficacy score (Xanthium strumarium [7]; Table 4, 200 g/ha) | ZEAMX (maize) damage, scale of 0-10 (maize [8]; [15]) | ZEAMX (maize) damage, scale of 0-10 (maize [8]; spray amount 200 g/ha, Table 5) | ORYSA (rice) damage, scale of 0-10 (rice [9]; [15]) | ORYSA (rice) damage, scale of 0-10 (rice [9]; spray amount 200 g/ha, Table 5) | TRZAW (wheat) damage, scale of 0-10 (wheat [10]; [15]) | TRZAW (wheat) damage, scale of 0-10 (wheat [10]; spray amount 200 g/ha, Table 5) | other results |
| --- | --- | --- | --- | --- | --- | --- | --- | --- | --- | --- | --- | --- | --- | --- | --- | --- | --- | --- | --- | --- | --- |
| COC(=O)c1nc(C2CC(Cl)=NO2)cc(N)c1Cl (stereo not drawn) [Compound 37, methyl 4-amino-3-chloro-6-(3-chloro-4,5-dihydroisoxazol-5-yl)picolinate] | 0 | 0 | 0 | 1 | 0 | 0 | 10 | 10 | 10 | 10 | 10 | 7 | 10 | 10 | 0 | 0 | 0 | 1 | 0 | 1 | ABUTH (Abutilon theophrasti Medicus) herbicidal efficacy, scale of 0-10 [11, 16]: 10; ABUTH (Abutilon theophrasti Medicus) herbicidal efficacy, scale of 0-10 ([11]; spray amount 200 g/ha, Table 5): 10; AESIN (Aeschynomene indica) herbicidal efficacy, scale of 0-10 (Aeschynomene indica [12]; [16]): 10; AESIN (Aeschynomene indica) herbicidal efficacy, scale of 0-10 (Aeschynomene indica [12]; spray amount 200 g/ha, Table 5): 10; IPOAN (Quamoclit pennata) herbicidal efficacy, scale of 0-10 (Quamoclit pennata [13]; [16]): 8; IPOAN (Quamoclit pennata) herbicidal efficacy, scale of 0-10 (Quamoclit pennata [13]; spray amount 200 g/ha, Table 5): 8; XANST (Xanthium strumarium) herbicidal efficacy, scale of 0-10 (Xanthium strumarium [14]; [16]): 10; XANST (Xanthium strumarium) herbicidal efficacy, scale of 0-10 (Xanthium strumarium [14]; spray amount 200 g/ha, Table 5): 10 |
| COC(=O)c1nc(C2CC(Cl)=NO2)cc(NC(C)=O)c1Cl (stereo not drawn) [Compound 1, methyl 4-acetamido-3-chloro-6-(3-chloro-4,5-dihydroisoxazol-5-yl)picolinate] | 0 |  | 0 |  | 1 |  | 8 |  | 10 |  | 9 |  | 9 |  |  | 0 |  | 1 |  | 1 | ABUTH (Abutilon theophrasti Medicus) herbicidal efficacy, scale of 0-10 ([11]; spray amount 200 g/ha, Table 5): 8; AESIN (Aeschynomene indica) herbicidal efficacy, scale of 0-10 (Aeschynomene indica [12]; spray amount 200 g/ha, Table 5): 10; IPOAN (Quamoclit pennata) herbicidal efficacy, scale of 0-10 (Quamoclit pennata [13]; spray amount 200 g/ha, Table 5): 8; XANST (Xanthium strumarium) herbicidal efficacy, scale of 0-10 (Xanthium strumarium [14]; spray amount 200 g/ha, Table 5): 10 |
| Cc1ccc(COC(=O)c2nc(C3CC(Br)=NO3)cc(N)c2Cl)cc1 (stereo not drawn) [Compound 87, 4-methylbenzyl 4-amino-6-(3-bromo-4,5-dihydroisoxazol-5-yl)-3-chloropicolinate] |  | 0 |  | 0 |  | 0 |  | 6 |  | 9 |  | 7 |  | 5 | 1 |  | 0 |  | 0 |  | ABUTH (Abutilon theophrasti Medicus) herbicidal efficacy, scale of 0-10 [11, 16]: 6; AESIN (Aeschynomene indica) herbicidal efficacy, scale of 0-10 (Aeschynomene indica [12]; [16]): 9; IPOAN (Quamoclit pennata) herbicidal efficacy, scale of 0-10 (Quamoclit pennata [13]; [16]): 4; XANST (Xanthium strumarium) herbicidal efficacy, scale of 0-10 (Xanthium strumarium [14]; [16]): 10 |
| Nc1c(Cl)c(F)nc(OCC(=O)O)c1Cl [fluroxypyr, reference compound] | 3 | 4 | 8 | 8 | 3 | 3 | 7 | 7 | 9 | 10 | 9 | 9 | 9 | 9 | 3 | 0 | 3 | 4 | 0 | 3 | ABUTH (Abutilon theophrasti Medicus) herbicidal efficacy, scale of 0-10 [11, 16]: 7; ABUTH (Abutilon theophrasti Medicus) herbicidal efficacy, scale of 0-10 ([11]; spray amount 200 g/ha, Table 5): 10; AESIN (Aeschynomene indica) herbicidal efficacy, scale of 0-10 (Aeschynomene indica [12]; [16]): 3; AESIN (Aeschynomene indica) herbicidal efficacy, scale of 0-10 (Aeschynomene indica [12]; spray amount 200 g/ha, Table 5): 10; IPOAN (Quamoclit pennata) herbicidal efficacy, scale of 0-10 (Quamoclit pennata [13]; [16]): 6; IPOAN (Quamoclit pennata) herbicidal efficacy, scale of 0-10 (Quamoclit pennata [13]; spray amount 200 g/ha, Table 5): 8; XANST (Xanthium strumarium) herbicidal efficacy, scale of 0-10 (Xanthium strumarium [14]; [16]): 10; XANST (Xanthium strumarium) herbicidal efficacy, scale of 0-10 (Xanthium strumarium [14]; spray amount 200 g/ha, Table 5): 10 |
